“And” between values parts separate entries of the source, which are not always exact repeats. Identical values can stand only once. Inconclusive results and toxic doses are left out. No stated cut-off is given here; in the data, active means T/C of 150% or more; inactive means T/C below 125%.
Tested on: L1210 leukemia ip in BDF1 mice, survival T/C
Experiment: NCI In Vivo Anticancer Drug Screen. Data for tumor model L1210 Leukemia (intraperitoneal) in B6D2F1 (BDF1) mice
Conditions: endpoint: mean survival time, higher = longer survival
How it was run: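 Antitumor effect is assessed in tumor-bearing animals. Survival in the compound arm is compared with a vehicle-dosed control arm and expressed as their quotient.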

[1] = dose: 100.0 mg/kg/injection, schedule: Q01DX001 (ip), vehicle: saline
[2] = dose: 200.0 mg/kg/injection, schedule: Q01DX001 (ip), vehicle: saline
[3] = dose: 400.0 mg/kg/injection, schedule: Q01DX001 (ip), vehicle: saline
[4] = dose: 100.0 mg/kg/injection, schedule: Q01DX009 (ip), vehicle: saline with Tween-80
[5] = dose: 200.0 mg/kg/injection, schedule: Q01DX009 (ip), vehicle: saline with Tween-80
[6] = dose: 400.0 mg/kg/injection, schedule: Q01DX009 (ip), vehicle: saline with Tween-80
[7] = dose: 100.0 mg/kg/injection, schedule: Q04DX002 (ip), vehicle: Klucel (hydroxypropylcellulose) (HPC)
[8] = dose: 100.0 mg/kg/injection, schedule: Q01DX009 (ip), vehicle: other
[9] = dose: 100.0 mg/kg/injection, schedule: Q01DX009 (ip), vehicle: Klucel (hydroxypropylcellulose) (HPC)

Measured: T/C

CCOC(=O)C(CC(C)C)NP(=O)(CCl)N(CCCl)CCCl (configuration not stated)
inactive: dose: 25.0 mg/kg/injection, schedule: Q01DX015 (ip), vehicle: other 102 % of control | dose: 50.0 mg/kg/injection, schedule: Q01DX015 (ip), vehicle: other 104 % of control | [1] 104 % of control | dose: 100.0 mg/kg/injection, schedule: Q01DX015 (ip), vehicle: other 102 % of control | dose: 100.0 mg/kg/injection, schedule: Q04DX003 (ip), vehicle: saline 95 % of control | [2] 104 % of control | dose: 200.0 mg/kg/injection, schedule: Q01DX015 (ip), vehicle: other 102 % of control | dose: 200.0 mg/kg/injection, schedule: Q04DX003 (ip), vehicle: saline 95 % of control | [3] 106 % of control | dose: 400.0 mg/kg/injection, schedule: Q04DX003 (ip), vehicle: saline 91 % of control

CCCCCCCC(=O)N(CCN(N=O)C(=O)CCCCCCC)N=O
inactive: [1] 95 % of control | [3] 90 % of control

O=P(O)(N(CCCl)CCCl)N1CCN(Cc2ccccc2)CC1
inactive: dose: 10.0 mg/kg/injection, schedule: Q01DX Z (ip), vehicle: other 95 % of control | dose: 30.0 mg/kg/injection, schedule: Q01DX Z (ip), vehicle: other 105 % of control | dose: 100.0 mg/kg/injection, schedule: Q01DX Z (ip), vehicle: other 108 % of control

CCOC(=O)c1cnc(SC)nc1Oc1ccccc1Cl
inactive: dose: 100.0 mg/kg/injection, schedule: Q01DX001 (ip), vehicle: saline with Tween-80 96 % of control | [4] 98 % of control | dose: 200.0 mg/kg/injection, schedule: Q01DX001 (ip), vehicle: saline with Tween-80 97 % of control | [5] 96 % of control | dose: 400.0 mg/kg/injection, schedule: Q01DX001 (ip), vehicle: saline with Tween-80 97 % of control | [6] 93 % of control

Cc1cc(N)c(C)c(CC#N)c1
inactive: dose: 50.0 mg/kg/injection, schedule: Q01DX009 (ip), vehicle: saline 97 % of control | dose: 100.0 mg/kg/injection, schedule: Q01DX009 (ip), vehicle: saline 118 % of control | dose: 200.0 mg/kg/injection, schedule: Q01DX009 (ip), vehicle: saline 90 % of control

CCOC(=O)c1ccccc1N=Nc1cc(OC)c(N)cc1OC
inactive: dose: 5.0 mg/kg/injection, schedule: Q01DX001 (ip), vehicle: other 101 % of control | dose: 10.0 mg/kg/injection, schedule: Q01DX001 (ip), vehicle: other 111 % of control | dose: 20.0 mg/kg/injection, schedule: Q01DX001 (ip), vehicle: other 114 % of control

CCOCCOCCCNCC(=O)N1CCN(C(=O)CNCCCOCCOCC)CC1
inactive: dose: 50.0 mg/kg/injection, schedule: Q01DX001 (ip), vehicle: carboxymethylcellulose (CMC) 97 % of control | dose: 100.0 mg/kg/injection, schedule: Q01DX001 (ip), vehicle: carboxymethylcellulose (CMC) 98 % of control | dose: 200.0 mg/kg/injection, schedule: Q01DX001 (ip), vehicle: carboxymethylcellulose (CMC) 108 % of control | dose: 400.0 mg/kg/injection, schedule: Q01DX001 (ip), vehicle: carboxymethylcellulose (CMC) 103 % of control

Cn1c(=O)c2c(nc(C3CC=CCC3)n2C)n(C)c1=O (configuration not stated)
inactive: dose: 50.0 mg/kg/injection, schedule: Q01DX001 (ip), vehicle: other 98 % of control

Clc1ccccc1C1Nc2ccccc2S1 (configuration not stated)
inactive: [1] 109 % of control | [2] 104 % of control | [3] 99 % of control

CCOC(=O)c1ccc(NC(=O)Sc2ccc(C(C)(C)C)cc2C)cc1
inactive: [4] 96 % of control | [5] 100 % of control

Clc1ccc(C[As+](c2ccccc2)(c2ccccc2)c2ccccc2)cc1
inactive: dose: 20.0 mg/kg/injection, schedule: Q01DX001 (ip), vehicle: saline 97 % of control

C=CCCCCCCCCC(=O)N/N=C/c1ccccc1
inactive: [7] 95 % of control | dose: 200.0 mg/kg/injection, schedule: Q04DX002 (ip), vehicle: Klucel (hydroxypropylcellulose) (HPC) 100 % of control

NC(CSC1(c2ccc(Cl)cc2)c2ccccc2-c2ccccc21)C(=O)O (configuration not stated)
inactive: dose: 1.56 mg/kg/injection, schedule: Q01DX009 (ip), vehicle: other 98 % of control | dose: 3.12 mg/kg/injection, schedule: Q01DX009 (ip), vehicle: other 106 % of control | dose: 6.25 mg/kg/injection, schedule: Q01DX009 (ip), vehicle: other 100 % of control | dose: 12.5 mg/kg/injection, schedule: Q01DX009 (ip), vehicle: other 98 % of control and 105 % of control | dose: 25.0 mg/kg/injection, schedule: Q01DX009 (ip), vehicle: other 95 % of control | dose: 50.0 mg/kg/injection, schedule: Q01DX009 (ip), vehicle: other 100 % of control | [8] 97 % of control

O=Nc1c(O)[nH]c(=O)[nH]c1=O
inactive: dose: 100.0 mg/kg/injection, schedule: Q01DX001 (ip), vehicle: Klucel (hydroxypropylcellulose) (HPC) 95 % of control | dose: 200.0 mg/kg/injection, schedule: Q01DX001 (ip), vehicle: Klucel (hydroxypropylcellulose) (HPC) 106 % of control

COc1cc(Br)c2c(c1OC)C(=O)CC2
inactive: [9] 94 % of control | dose: 100.0 mg/kg/injection, schedule: Q04DX003 (ip), vehicle: Klucel (hydroxypropylcellulose) (HPC) 98 % of control | dose: 200.0 mg/kg/injection, schedule: Q01DX009 (ip), vehicle: Klucel (hydroxypropylcellulose) (HPC) 96 % of control | dose: 200.0 mg/kg/injection, schedule: Q04DX003 (ip), vehicle: Klucel (hydroxypropylcellulose) (HPC) 96 % of control | dose: 400.0 mg/kg/injection, schedule: Q01DX009 (ip), vehicle: Klucel (hydroxypropylcellulose) (HPC) 98 % of control | dose: 400.0 mg/kg/injection, schedule: Q04DX003 (ip), vehicle: Klucel (hydroxypropylcellulose) (HPC) 91 % of control

COc1ccc([N+](=O)[O-])cc1NS(=O)(=O)c1ccc(Cl)c([N+](=O)[O-])c1
inactive: dose: 50.0 mg/kg/injection, schedule: Q01DX009 (ip), vehicle: saline with Tween-80 95 % of control and 90 % of control | dose: 50.0 mg/kg/injection, schedule: Q04DX003 (ip), vehicle: other 97 % of control | [8] 105 % of control | [4] 93 % of control and 106 % of control | dose: 100.0 mg/kg/injection, schedule: Q04DX002 (ip), vehicle: other 107 % of control and 113 % of control | dose: 100.0 mg/kg/injection, schedule: Q04DX003 (ip), vehicle: other 96 % of control | [5] 95 % of control | dose: 200.0 mg/kg/injection, schedule: Q04DX002 (ip), vehicle: other 96 % of control and 102 % of control | dose: 200.0 mg/kg/injection, schedule: Q04DX003 (ip), vehicle: other 89 % of control | dose: 400.0 mg/kg/injection, schedule: Q01DX009 (ip), vehicle: other 87 % of control | [6] 95 % of control | dose: 400.0 mg/kg/injection, schedule: Q04DX002 (ip), vehicle: other 101 % of control and 102 % of control

CC1(C(Cl)(Cl)Cl)C=CC(O)C=C1 (configuration not stated)
inactive: dose: 25.0 mg/kg/injection, schedule: Q01DX009 (ip), vehicle: Klucel (hydroxypropylcellulose) (HPC) 90 % of control | dose: 25.0 mg/kg/injection, schedule: Q04DX002 (ip), vehicle: Klucel (hydroxypropylcellulose) (HPC) 87 % of control | dose: 50.0 mg/kg/injection, schedule: Q01DX009 (ip), vehicle: Klucel (hydroxypropylcellulose) (HPC) 93 % of control | dose: 50.0 mg/kg/injection, schedule: Q04DX002 (ip), vehicle: Klucel (hydroxypropylcellulose) (HPC) 93 % of control | [9] 97 % of control and 90 % of control | [7] 97 % of control and 89 % of control | dose: 150.0 mg/kg/injection, schedule: Q01DX009 (ip), vehicle: Klucel (hydroxypropylcellulose) (HPC) 93 % of control

Oc1[nH]c2ccccc2c1N=Nc1ccccn1
inactive: dose: 100.0 mg/kg/injection, schedule: Q01DX001 (ip), vehicle: other 93 % of control | dose: 200.0 mg/kg/injection, schedule: Q01DX001 (ip), vehicle: other 101 % of control | dose: 400.0 mg/kg/injection, schedule: Q01DX001 (ip), vehicle: other 104 % of control
